{
  "source": "patent US20240197911A1",
  "about": "“Oral Pharmaceutical Composition, Method for Fabricating Thereof, and Kit for Treating Cancer” (National Tsing Hua University, priority 2022, published 2024)",
  "key": {"RAW264.7 cells [1]": {"test_system": "RAW264.7 cells", "assay": "Cellular uptake and trafficking by Mφ in vitro (CLSM)", "type": "cell-based, murine", "conditions": "10 μg/mL DOX", "description": "To investigate whether the oral pharmaceutical composition of the present disclosure can be phagocytosed and carried by Mφ, the cellular uptake and trafficking of free DOX, Comparative Example or Example 1 by Mφ in vitro are observed first. RAW264.7 cells, a murine Mφ cell line, are seeded in an eight-well chamber slide (ibidi) at a density of 5×10^4 cells per well and incubated overnight. The cells are then treated with each of the test samples at an equivalent dose of DOX (10 μg/mL). Following incubation for pre-determined periods (0, 2, 4, and 6 hours), test cells are washed with Dulbecco's phosphate-buffered saline (DPBS) and stained with LysoTracker™ Deep Red (Invitrogen) and Hoechst 33342 (Abcam) for 30 minutes in the incubator. The stained cells are then examined using confocal laser scanning microscopy (CLSM) (LSM 780, Carl Zeiss) to track the localization and accumulation of free DOX, the DOX fluorescent signal of Comparative Example or Example 1, and to determine the cell regulation process of free DOX, Comparative example and Example 1 in the RAW264.7 cells."}, "RAW264.7 cells [2]": {"test_system": "RAW264.7 cells", "assay": "Cytotoxicity on Mφ", "type": "cell-based, murine", "conditions": "different DOX concentrations, 24 hours", "description": "The capacity of Mφ as a hitchhiking vehicle is strongly correlated with their viability following the uptake of drug-encapsulated particles. Therefore, the cytotoxicity of Example 1 on Mφ are further evaluated. The RAW264.7 cells are incubated with Comparative Example or Example 1 including different DOX concentrations for 24 hours, and the RAW264.7 cells treated with the same concentration of free DOX are used as Control (represents as “DOX”)."}, "orthotopic PDAC mice": {"test_system": "orthotopic PDAC mice", "assay": "Antitumor efficacy of different treatments", "type": "in vivo", "text": "To evaluate the antitumor efficacy of different treatments, the orthotopic PDAC mice are randomly assigned to the following groups: untreated control group (hereinafter referred to as “Control”), orally administered β-glucan group (hereinafter referred to as “βGlus”), intravenous injected DOX group (hereinafter referred to as “DOX”), orally administered Comparative Example group (hereinafter referred to as “Comparative Example”), and orally administered Example 1 group (hereinafter referred to as “Example 1”). In the groups of DOX, Comparative Example and Example 1, the DOX content of each dose is 10 mg/kg, while in the groups of βGlus and Example 1, the content of β-glucan of each dose is 40 mg/kg. The body weight changes of the orthotopic PDAC mice are recorded every other day. On day 21, the orthotopic PDAC mice are euthanized and their tumors are retrieved for analysis."}},
  "data": [
    {"compound": "COc1cccc2c1C(=O)c1c(O)c3c(c(O)c1C2=O)C[C@@](O)(C(=O)CO)C[C@@H]3O[C@H]1C[C@H](N)[C@H](O)[C@H](C)O1", "note": "[DOX, doxorubicin]", "values": [
      {"measurement": "accumulation of DOX fluorescence in the cell nuclei", "setting": "RAW264.7 cells [1]", "result": "accumulated in their nuclei"},
      {"measurement": "cell viability", "setting": "RAW264.7 cells [2]", "result": "decreases substantially in a dose-dependent manner"},
      {"measurement": "tumor volume", "setting": "orthotopic PDAC mice; day 21, three doses, DOX 10 mg/kg, β-glucan 40 mg/kg per dose, compared with Control", "result": "substantially reduces tumor volumes"},
      {"measurement": "body weight", "setting": "orthotopic PDAC mice; intravenous DOX 10 mg/kg per dose, P<0.05", "result": "serious loss of body weight"}
    ]}
  ]
}
